Measured values from patent US20050085463A1 (priority 2003, published 2005).
“And” between values parts separate entries of the source, which are not always exact repeats. Equal entries are not always repeated. Where two headings read alike, the source gives them in different places.

Assays:
[1] = target: D1 receptors (Homo sapiens, UniProt P21728); experiment: Ligand binding screen at 10 μM
[2] = Pharmacokinetics after single i.v. or oral dose in rats; type: in vivo, Sprague-Dawley rats; conditions: rat; for bioavailability: read-out: BA (oral bioavailability)
[3] = target: M3 muscarinic receptor (Homo sapiens, UniProt P20309); experiment: R-SAT agonist assay
Sequence of M3 muscarinic receptor (P20309 whole entry): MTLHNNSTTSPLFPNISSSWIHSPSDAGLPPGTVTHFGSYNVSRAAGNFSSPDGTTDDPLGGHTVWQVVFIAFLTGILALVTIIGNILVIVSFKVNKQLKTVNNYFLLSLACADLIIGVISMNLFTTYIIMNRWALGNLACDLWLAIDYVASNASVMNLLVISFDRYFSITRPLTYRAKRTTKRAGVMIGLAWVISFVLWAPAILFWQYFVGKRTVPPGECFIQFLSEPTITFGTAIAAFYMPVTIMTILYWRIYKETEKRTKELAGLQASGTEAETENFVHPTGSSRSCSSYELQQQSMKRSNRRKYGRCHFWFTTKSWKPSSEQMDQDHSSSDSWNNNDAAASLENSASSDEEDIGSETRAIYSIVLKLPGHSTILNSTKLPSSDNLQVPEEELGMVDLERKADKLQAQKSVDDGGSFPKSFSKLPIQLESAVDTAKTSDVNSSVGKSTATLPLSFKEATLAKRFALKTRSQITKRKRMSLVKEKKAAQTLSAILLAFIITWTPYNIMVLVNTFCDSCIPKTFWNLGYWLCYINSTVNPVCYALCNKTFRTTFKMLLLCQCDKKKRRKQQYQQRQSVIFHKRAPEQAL

[4] = target: T1, 5-HT1A receptor (Homo sapiens, UniProt P08908); experiment: R-SAT competitive antagonist assay; conditions: R-SAT; nr = no significant antagonist or inverse agonist activity up to 1 μM; nr* = nr but significant agonist activity
T1 sequence (P08908 1-422): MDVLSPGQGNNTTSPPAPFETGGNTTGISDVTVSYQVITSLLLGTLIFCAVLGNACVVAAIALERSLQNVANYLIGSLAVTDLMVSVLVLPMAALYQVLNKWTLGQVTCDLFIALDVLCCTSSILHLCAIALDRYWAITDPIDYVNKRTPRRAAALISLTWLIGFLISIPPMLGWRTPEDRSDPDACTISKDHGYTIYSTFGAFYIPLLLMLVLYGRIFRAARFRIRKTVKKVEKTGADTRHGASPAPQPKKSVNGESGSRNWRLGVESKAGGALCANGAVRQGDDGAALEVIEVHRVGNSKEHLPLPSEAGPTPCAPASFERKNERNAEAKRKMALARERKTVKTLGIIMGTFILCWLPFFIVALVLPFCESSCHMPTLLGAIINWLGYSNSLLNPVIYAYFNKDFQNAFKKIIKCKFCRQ

[5] = target: H1 histamine receptor (Homo sapiens, UniProt P35367); experiment: R-SAT competitive antagonist assay
Sequence of H1 histamine receptor (P35367 whole entry): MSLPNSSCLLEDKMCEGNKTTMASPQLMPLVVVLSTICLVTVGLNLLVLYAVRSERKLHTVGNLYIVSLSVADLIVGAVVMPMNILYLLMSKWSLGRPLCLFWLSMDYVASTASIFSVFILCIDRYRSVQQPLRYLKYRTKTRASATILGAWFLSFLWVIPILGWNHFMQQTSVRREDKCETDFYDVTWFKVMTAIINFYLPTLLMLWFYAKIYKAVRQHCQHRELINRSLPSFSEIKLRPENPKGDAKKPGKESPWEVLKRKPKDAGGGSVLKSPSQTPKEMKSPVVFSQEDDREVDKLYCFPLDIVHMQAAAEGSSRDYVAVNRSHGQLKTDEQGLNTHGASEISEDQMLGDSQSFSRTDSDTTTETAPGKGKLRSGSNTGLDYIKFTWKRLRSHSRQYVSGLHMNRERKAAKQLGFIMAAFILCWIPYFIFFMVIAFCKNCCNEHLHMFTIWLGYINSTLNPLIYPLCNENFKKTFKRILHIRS

[6] = male, Sprague-Dawley, plasma, iv, 1 mg/kg, Plasma concentration after NDMC administration, NDMC i.v. 1 mg/kg, mean ± SD
[7] = male, Sprague-Dawley, plasma, iv, 1 mg/kg, Plasma concentration of compound measured after clozapine administration, clozapine i.v. 1 mg/kg, mean ± SD
[8] = male, Sprague-Dawley, plasma, po, 10 mg/kg, Plasma concentration after NDMC administration, NDMC p.o. 10 mg/kg, mean ± SD, two p.o. groups
[9] = male, Sprague-Dawley, plasma, po, 10 mg/kg, Plasma concentration after NDMC administration, NDMC p.o. 10 mg/kg, mean ± SD
[10] = male, Sprague-Dawley, plasma, po, 10 mg/kg, Plasma concentration of compound measured after clozapine administration, clozapine p.o. 10 mg/kg, mean ± SD
[11] = NDMC p.o. 10 mg/kg, mean ± SD, two p.o. groups, 10 mg/kg

Sequence of D1 receptors (P21728 whole entry): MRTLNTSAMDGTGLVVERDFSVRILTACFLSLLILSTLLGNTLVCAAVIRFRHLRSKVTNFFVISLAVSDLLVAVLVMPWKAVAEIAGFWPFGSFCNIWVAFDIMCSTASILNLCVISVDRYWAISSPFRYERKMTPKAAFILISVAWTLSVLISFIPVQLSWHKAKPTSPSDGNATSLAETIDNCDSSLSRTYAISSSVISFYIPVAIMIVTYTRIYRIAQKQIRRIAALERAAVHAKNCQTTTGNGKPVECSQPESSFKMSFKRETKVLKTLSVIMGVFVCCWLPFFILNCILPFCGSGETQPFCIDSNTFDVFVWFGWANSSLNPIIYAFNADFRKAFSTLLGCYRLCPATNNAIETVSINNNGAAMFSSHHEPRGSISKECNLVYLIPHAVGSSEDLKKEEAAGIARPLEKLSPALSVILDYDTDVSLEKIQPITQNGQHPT

Compound: Clc1ccc2c(c1)N=C(N1CCNCC1)c1ccccc1N2 [NDMC, 8-chloro-11-(1-piperazinyl)-5H-dibenzo [b,e][1,4] diazepine]
- inhibition at 10 µM [1]: ≥ 90%
- half-life ([2]; male, Sprague-Dawley, plasma, iv, 1 mg/kg): 39.3 min
- concentration at 10 min [2, 6]: 540 ± 46 ng/mL
- concentration at 30 min [2, 6]: 276 ± 30 ng/mL
- concentration at 60 min [2, 6]: 126 ± 38 ng/mL
- concentration at 120 min [2, 6]: 33.7 ± 11.4 ng/mL
- concentration at 180 min [2, 6]: 11.7 ± 3.8 ng/mL
- concentration at 240 min [2, 6]: 5.3 ± 0.3 ng/mL
- concentration at 30 min [2, 7]: 2.8 ± 1.2 ng/mL
- concentration at 60 min [2, 7]: 4 ± 1.5 ng/mL
- concentration at 120 min [2, 7]: 2.3 ± 1 ng/mL
- concentration at 180 min [2, 7]: 0.7 ± 0.1 ng/mL
- concentration at 240 min [2, 7]: 0.8 ± 0.6 ng/mL
- AUC ([2]; male, Sprague-Dawley, plasma, iv, 1 mg/kg, after NDMC i.v. 1 mg/kg, read-out: Average AUC (converted)): 456 ng·h/mL
- Cmax ([2]; male, Sprague-Dawley, plasma, iv, 1 mg/kg, after NDMC i.v. 1 mg/kg, read-out: Cmax): 756 ng/mL
- Tmax ([2]; male, Sprague-Dawley, plasma, iv, 1 mg/kg, after NDMC i.v. 1 mg/kg, read-out: Tmax): 0 min
- AUC ([2]; male, Sprague-Dawley, plasma, iv, 1 mg/kg, after clozapine i.v. 1 mg/kg, read-out: Average AUC of compound measured (converted)): 8.16 ng·h/mL
- Cmax ([2]; male, Sprague-Dawley, plasma, iv, 1 mg/kg, after clozapine i.v. 1 mg/kg, read-out: Cmax of compound measured): 3.99 ng/mL
- Tmax ([2]; male, Sprague-Dawley, plasma, iv, 1 mg/kg, after clozapine i.v. 1 mg/kg, read-out: Tmax of compound measured (converted)): 60 min
- Vd ([2]; male, Sprague-Dawley, plasma, iv, 1 mg/kg, read-out: Vss): 1.47 L/kg
- concentration at 10 min [2, 8]: 305 ± 101 ng/mL
- concentration at 30 min [2, 8]: 582 ± 265 ng/mL
- concentration at 60 min [2, 8]: 481 ± 181 ng/mL
- concentration at 120 min [2, 9]: 227 ± 75 ng/mL
- concentration at 180 min [2, 9]: 170 ± 26 ng/mL
- concentration at 240 min [2, 9]: 122 ± 54 ng/mL
- concentration at 120 min [2, 10]: 42.5 ± 15.1 ng/mL
- concentration at 180 min [2, 10]: 13.4 ± 2.54 ng/mL
- concentration at 240 min [2, 10]: 7.1 ± 0.5 ng/mL
- AUC ([2]; male, Sprague-Dawley, plasma, po, 10 mg/kg, after NDMC p.o. 10 mg/kg, read-out: Average AUC (converted)): 1140 ng·h/mL
- AUC ([2]; male, Sprague-Dawley, plasma, po, 10 mg/kg, after clozapine p.o. 10 mg/kg, read-out: Average AUC of compound measured (converted)): 270 ng·h/mL
- Tmax ([2]; male, Sprague-Dawley, plasma, po, 10 mg/kg, after clozapine p.o. 10 mg/kg, read-out: Tmax of compound measured (converted)): 30 min
- bioavailability ([2]; male, Sprague-Dawley, serum, oral, 10 mg/kg): ~25%
- Cmax ([2]; male, Sprague-Dawley, serum, po, 10 mg/kg, after NDMC p.o. 10 mg/kg, read-out: Cmax): 582 ng/mL
- Tmax ([2]; male, Sprague-Dawley, serum, po, 10 mg/kg, after NDMC p.o. 10 mg/kg, read-out: Tmax): ≤ 30 min
- Cmax ([2]; male, Sprague-Dawley, serum, po, 10 mg/kg, after clozapine p.o. 10 mg/kg, read-out: Cmax of compound measured): 194 ng/mL
- bioavailability ([2]; male, Sprague-Dawley, serum, po, 10 mg/kg): 25%
- Plasma concentration after NDMC administration, 10 min [2, 11]: 277 ± 57 ng/mL
- Plasma concentration after NDMC administration, 30 min [2, 11]: 576 ± 161 ng/mL
- Plasma concentration after NDMC administration, 60 min [2, 11]: 614 ± 60 ng/mL
- CLs ([2]; after NDMC i.v. 1 mg/kg): 36.2 mL/min/kg
- EC50 ([3]; M3 pEC50, R-SAT agonist): 324 nM and 316 nM
- M3 Efficacy ([3]; R-SAT, relative to carbachol, No response/nr = no agonist activity up to 10 μM): 27 ± 4%
- pKi 5-HT1A, competitive antagonist [4]: nr and nr^1
- Ki [5]: 6.31 nM
- pKi H1, competitive antagonist ([5]; R-SAT, nr = no significant antagonist or inverse agonist activity up to 1 μM, nr* = nr but significant agonist activity): 8.2 ± 0.2
